Measurements taken from PMC10198994 (Scientific Reports, 2023).
Structures can show the parent of a compound that is named as a salt. Where two headings read alike, the source gives them in different places. Marks after values point to notes of the source that are not given here.

Experiments:
[1] = Total, sublimation and solvation enthalpies of HCQS in scCO2 from Chrastil, reformulated Chrastil and Bartle et al. model constants; type: physicochemical
Excerpt: In the year 1981, Josef Chrastil presented a model for the solubility of solids/liquids in SCF. The main basis of the model is a solvate complex formulation based on a simple reaction. According to Chrastil, solubility is explained by c2=c2(κ,ρ1,T) , where κ is association number, ρ1 is solvent density (scCO2) and T is temperature. Chrastil proposed Eq. (19)19 c2=ρ1κexpA1+B1/T
In the year 2009, Garlpati and Madras has reformulated Chrastil's model and it is expressed by Eq. (21), where solubility is explained by y2=y2κ^′,ρ1,T , in which κ^′ is association number, ρ1 is solvent density (scCO2) and T is temperature.21 y2=RTρ1/MScFf^∙^κ^′-1expA2+B2/T in Eq. (21), R denotes universal constant of ideal gas, MScF is molecular weight of solvent, f^∗ is reference pressure and A2 and B2 are the Reformulated model constants.
The solute sublimation enthalpy is calculated with Bartle et al., model and it is stated as23 lny2P/Pref=A4+B4/T+C4ρ1-ρref where A4 to C4 are the model constants. Using the constant B4 , sublimation enthalpy is calculated (i.e., ΔsubH=-B4R ).
Solid–liquid model requires enthalpy of fusion, molar volume and melting point of the solute. Enthalpy of fusion is estimated with the help Jain et al.[77], and molar volume of the solute is estimated with the help Immirzi and Perini method. The calculated molar enthalpy and molar volumes are 65,208 J mol^−1 and 3.306 × 10^–4 m^3 mol^−1, respectively. The melting temperature is obtained from the material safety data sheet as 240 °C. From Chrastil's model constant ( B1 ), total enthalpy is calculated ( B1 × R). From Bartle’s model constant ( B4 ), sublimation enthalpy is calculated ( ΔsubH=-B4R ). From the magnitude difference between total and sublimation enthalpies, solvation enthalpy is calculated. Similarly, from reformulated Chrastil's model constant ( B2 ) and Bartle’s model constant ( B4 ), combination solvation enthalpy is calculated. […] This may be due to a smaller number of parameters in the models; on the other hand, the correlating ability of the solvate complex models is quite good. […]

[2] = Static equilibrium solubility of HCQS in supercritical carbon dioxide (UV-vis spectrophotometer); type: physicochemical; conditions: for solubility thermodynamic at 1 h: thermodynamic from solid, read-out: Equilibrium solubility, S
Method: SCF-solubility of the drugs was experimentally measured via two broad classes of saturated solution-based methods, where solubility measurement can be done either (1) statically or (2) dynamically. […] The solubilities were measured with the help of an equilibrium cell. Thermodynamically, the method employed may be regarded as an isobaric-isothermal method. All the measurements are taken by keeping system temperatures and pressures at the desired value with high precision (i.e., ± 0.1 K and ± 0.1 MPa). Complete details about the equipment and measurement procedures are presented elsewhere[15]–[35]. However, the description of the equipment and the methodology employed in establishing solubility data are briefly presented in this section. The scCO2 is pumped to the equilibrium cell and drug sample and scCO2 are thoroughly mixed and allowed to attain equilibrium. […] To ensure equilibrium solubility, the experiments are performed with fresh samples at various time intervals. […] For each sampling a 600 µL volume saturated sample is collected via a collection valve in a deionized water preloaded sample vial. After discharging of each sample, the sampling valve was cleaned with 1 ml of deionized water. Drug sample solubility is estimated with the following formula:1 y2=ndrug/ndrug+nCO2 where y2 is solubility of the drug in scCO2, ndrug and nCO2 are number of moles of the drug and CO2 in the sampling loop, respectively.
The following formulas are used in data conversion2 ndrug=Cs·Vs/Ms 3 nCO2=V1ρ1/MCO2 where Cs is concentration of the drug in g/L. V1 = 600 × 10^–6 L and Vs = 5 × 10^–3 L are sampling loop and vial volumes, respectively. Ms and MCO2 are drug and CO2 molecular weights, respectively. ρ1 is density of scCO2 at each experimental condition, as presented in Table 2.
Solubility is also described as4 S=CSVs/V1
The solubility and mole fraction relation is described as5 S=ρMs/MCO2y2/1-y2

Compound: CCN(CCO)CCCC(C)Nc1ccnc2cc(Cl)ccc12 (centres unmarked) [HCQS, Hydroxychloroquine sulfate]
- Enthalpy of sublimation ΔHsub ([1]; Bartle et al., model constant B4): ~89.1^c (approximate value) kJ/mol
- Total Enthalpy, ΔHtotal ([1]; Chrastil's model constant B1): 69.80^a kJ/mol
- Total Enthalpy, ΔHtotal ([1]; Modified Chrastil's model constant B2): 62.00^b kJ/mol
- rise in solubility when temperature is raised from 308 to 338 K ([2]; 12 MPa): 4.6 folds
- rise in solubility when temperature is raised from 308 to 338 K ([2]; 27 MPa): 3.8 folds
- solubility thermodynamic at 1 h ([2]; supercritical carbon dioxide (scCO2) in an equilibrium cell, scCO2, 308 K, 210 bar): 93.9 µg/mL
- solubility thermodynamic at 1 h ([2]; supercritical carbon dioxide (scCO2) in an equilibrium cell, scCO2, 308 K, 270 bar): 132 µg/mL
- solubility thermodynamic at 1 h ([2]; supercritical carbon dioxide (scCO2) in an equilibrium cell, scCO2, 318 K, 120 bar): 40.9 µg/mL
- solubility thermodynamic at 1 h ([2]; scCO2, 308 K, 150 bar): 35 µg/mL
- solubility thermodynamic at 1 h ([2]; scCO2, 308 K, 180 bar): 49.7 µg/mL
- solubility thermodynamic at 1 h ([2]; scCO2, 318 K, 150 bar): 80.6 µg/mL
- solubility thermodynamic at 1 h ([2]; scCO2, 318 K, 210 bar): 165 µg/mL
- solubility thermodynamic at 1 h ([2]; scCO2, 318 K, 240 bar): 210 µg/mL
- solubility thermodynamic at 1 h ([2]; scCO2, 328 K, 120 bar): 49.4 µg/mL
- solubility thermodynamic at 1 h ([2]; scCO2, 328 K, 150 bar): 103 µg/mL
- solubility thermodynamic at 1 h ([2]; scCO2, 328 K, 210 bar): 207 µg/mL
- solubility thermodynamic at 1 h ([2]; scCO2, 328 K, 270 bar): 356 µg/mL
- solubility thermodynamic at 1 h ([2]; scCO2, 338 K, 120 bar): 53.4 µg/mL
- solubility thermodynamic at 1 h ([2]; scCO2, 338 K, 150 bar): 126 µg/mL
- solubility thermodynamic at 1 h ([2]; scCO2, 338 K, 180 bar): 182 µg/mL
- solubility thermodynamic at 1 h ([2]; scCO2, 338 K, 210 bar): 231 µg/mL
- solubility thermodynamic at 1 h ([2]; scCO2, 338 K, 240 bar): 291 µg/mL
- solubility thermodynamic at 1 h ([2]; scCO2, 338 K, 270 bar): 426 µg/mL
